pIC50: −log10 of the molar value.
How the values were obtained:
BRD4 BD1 = target: T1, BRD4 BD1 (Homo sapiens, UniProt O60885); test: AlphaScreen binding assay, BRD4 Bromodomain 1
T1 construct: made in house
Procedure, shortened: (§1)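 Compound dilution series were mixed with His-tagged BRD4 bromodomain and biotinylated tetra-acetylated H4 (1-21) peptide at pH 7.3 (BD1 and peptide at 50 nM, BD2 and peptide at 100 nM). Donor and acceptor beads were then added, and plates were equilibrated at least 1 h before reading. IC50 values were fitted with a four-parameter logistic model.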

BRD4 BD2 = target: T2, BRD4 BD2 (Homo sapiens, UniProt O60885); test: AlphaScreen binding assay, BRD4 Bromodomain 2
T2 construct: made in house
Procedure, shortened: as §1

MV4-11 cells = test: Oncology cell growth assay (3-day proliferation, CellTiter-Glo); format: cell-based; conditions: Homo sapiens, MV4-11, 72 h, AML cell line MV4-11, 72 hours, compounds grouped by IC50 range, read-out: MV4-11 IC50 (inhibition of proliferation, gIC50)
Description: The impact of Example compounds on cancer cell proliferation was determined using the acute myelocytic leukemia (AML) cell line MV4-11 (ATCC) in a 3-day proliferation assay. MV4-11 cells were maintained in RPMI 1640 media supplemented with 10% FBS at 37° C. and an atmosphere of 5% CO2. For compound testing, compound dilutions series were prepared in DMSO via a 3-fold serial dilution from 2 mM to 0.001 mM in 384-well white flat bottom plates. The final compound concentrations in the wells were 10, 3.3, 1.1, 0.37, 0.12, 0.041, 0.013 and 0.0045 μM. MV4-11 cells were plated at a density of 3000 cells/well in final volume of 50 μl culture media and incubated for 72 hours. […] Luminescent signal from the CellTiter-Glo assay was read on an EnVision multilabel plate reader (PerkinElmer). Values for the concentration that inhibited cell growth by 50% (gIC50) between the DMSO control and background control (no cells) were determined using IDBS Activity Base software with a four parameter logistic curve fit by the equation y=A+((B−A)/(1+((C/x)^D))), wherein A denotes the bottom plateau of the curve, B denotes the top plateau of the curve, C denotes the x value at the middle of the curve, D denotes the slope factor, x denotes the original known x values, and y denotes the original known y values. Data was fitted using the Levenburg Marquardt algorithm.

Row | Structure (SMILES) | pIC50 (BRD4 BD1) | pIC50 (BRD4 BD2) | pIC50 (MV4-11 cells)
1 | CC(=O)N1c2ccc(-c3cnn(CCO)c3)cc2N(C(=O)OC(C)C)C[C@@H]1C [Example I-12, (S)-isopropyl 4-acetyl-7-(1-(2-hydroxyethyl)-1H-pyrazol-4-yl)-3-methyl-3,4-dihydroquinoxaline-1(2H)-carboxylate] | > 7.00 | > 7.30 | 6.30 to 7.00
2 | CC(=O)N1c2ccc(-c3cc[nH]n3)cc2N(C(=O)c2ccco2)C[C@@H]1C [Example I-14, (S)-1-(4-(furan-2-carbonyl)-2-methyl-6-(1H-pyrazol-3-yl)-3,4-dihydro-quinoxalin-1(2H)-yl)ethanone] | 5.00 to 6.00 | > 7.30 | 6.30 to 7.00
3 | CC(=O)N1c2ccc(-c3cnc(C)s3)cc2N(C(=O)c2ccco2)C[C@@H]1C [Example I-15, (S)-1-(4-(furan-2-carbonyl)-2-methyl-6-(2-methylthiazol-5-yl)-3,4-dihydroquinoxalin-1(2H)-yl)ethanone] | 5.00 to 6.00 | > 7.30 | 6.30 to 7.00
4 | COCCn1cc(-c2ccc3c(c2)N(C(=O)OC(C)C)C[C@H](C)N3C(C)=O)cn1 [Example I-17, (S)-isopropyl 4-acetyl-7-(1-(2-methoxyethyl)-1H-pyrazol-4-yl)-3-methyl-3,4-dihydroquinoxaline-1(2H)-carboxylate] | 6.00 to 7.00 | > 7.30 | 6.30 to 7.00
5 | CCOC(=O)N1C[C@H](C)N(C(C)=O)c2ccc(-c3cnn(C4CC4)c3)cc21 [Example I-21, (S)-ethyl 4-acetyl-7-(1-cyclopropyl-1H-pyrazol-4-yl)-3-methyl-3,4-dihydroquinoxaline-1(2H)-carboxylate] | 6.00 to 7.00 | 6.30 to 7.30 | 6.30 to 7.00

The next lines start with the values.

Row | pIC50 (BRD4 BD1) | pIC50 (BRD4 BD2) | pIC50 (MV4-11 cells) | Structure (SMILES)
6 | 6.00 to 7.00 | 6.30 to 7.30 | 6.30 to 7.00 | CCOC(=O)N1C[C@H](C)N(C(C)=O)c2ccc(-c3cnn(C4COC4)c3)cc21 [Example I-9, (S)-ethyl 4-acetyl-3-methyl-7-(1-(oxetan-3-yl)-1H-pyrazol-4-yl)-3,4-dihydro-quinoxaline-1(2H)-carboxylate]
7 | 6.00 to 7.00 | 6.30 to 7.30 | 6.30 to 7.00 | CC(=O)N1c2ccc(-c3cnn(C4COC4)c3)cc2N(C(=O)C2CC2)C[C@@H]1C [Example I-10, (S)-1-(4-(cyclopropanecarbonyl)-2-methyl-6-(1-(oxetan-3-yl)-1H-pyrazol-4-yl)-3,4-dihydroquinoxalin-1(2H)-yl)ethanone]
8 | 6.00 to 7.00 | > 7.30 | 6.30 to 7.00 | CC(=O)N1c2ccc(-c3cn[nH]c3)cc2N(C(=O)c2ccco2)C[C@@H]1C [Example I-13, (S)-1-(4-(furan-2-carbonyl)-2-methyl-6-(1H-pyrazol-4-yl)-3,4-dihydro-quinoxalin-1(2H)-yl)ethanone]
9 | 6.00 to 7.00 | > 7.30 | > 7.00 | CC(=O)N1c2ccc(-c3cn[nH]c3)cc2N(C(=O)Oc2ccccc2)C[C@@H]1C [Example I-16, (S)-phenyl 4-acetyl-3-methyl-7-(1H-pyrazol-4-yl)-3,4-dihydroquinoxaline-1(2H)-carboxylate]
10 | 6.00 to 7.00 | > 7.30 | 6.30 to 7.00 | COCCn1cc(-c2ccc3c(c2)N(C(=O)c2ccco2)C[C@H](C)N3C(C)=O)cn1 [Example I-18, (S)-1-(4-(furan-2-carbonyl)-6-(1-(2-methoxyethyl)-1H-pyrazol-4-yl)-2-methyl-3,4-dihydroquinoxalin-1(2H)-yl)ethanone]
11 | 5.00 to 6.00 | 6.30 to 7.30 | 6.30 to 7.00 | CCOC(=O)N1C[C@H](C)N(C(C)=O)c2ccc(-c3cn[nH]c3)cc21 [Example I-19, (S)-ethyl 4-acetyl-3-methyl-7-(1H-pyrazol-4-yl)-3,4-dihydroquinoxaline-1(2H)-carboxylate]
12 | > 7.00 | 6.30 to 7.30 | 6.30 to 7.00 | CC(=O)N1c2ccc(-c3cn[nH]c3)cc2N(C(=O)OC2CCCC2)C[C@@H]1C [Example I-20, (S)-cyclopentyl 4-acetyl-3-methyl-7-(1H-pyrazol-4-yl)-3,4-dihydro-quinoxaline-1(2H)-carboxylate]

From US10703764B2, “Benzopiperazine compositions as BET bromodomain inhibitors” (FORMA Therapeutics, Inc., priority 2013, dated 2020)
